Assay results from publication PMC12820429, “Modulating food intake by nasal application of peptides targeting melanocortin 4 receptor and ghrelin receptor systems” (Brain Communications, 2026).

Target: T1, MC4R (Homo sapiens, UniProt P32245)
T1 construct: expressed in transfected cells; host or cells: HEK293 (transient transfection, pcDNA3_MC4R plus CRE-luciferase reporter pGL4.29)
Assay: cAMP reporter gene assay
Type: cell-based
Settings: normalized to maximal setmelanotide response; n ≥ 2
Experimental: HEK293 cells were cultured under standard conditions.[33] Cyclic adenosine monophosphate (cAMP) reporter gene assay was carried out with HEK293 cells transiently transfected with pGL4.29[luc2P/CRE/Hygro] (Promega, Madison, WI, USA) and pcDNA3_MC4R plasmids. For transfection, a master mix consisting of 0.6 µL Lipofectamine (Invitrogen by Thermo Fisher) per 25 µL Opti-MEM (Gibco, Grand Island, NY, USA) per well was preincubated at room temperature for 5 min and then gently mixed with 0.125 µg of both plasmids per 25 µL Opti-MEM per well and incubated for 30 min at room temperature. […] Two hundred microlitres of the mixture was added per well to a white 96-well plate (Greiner Bio-One International GmbH, Kremsmünster, Austria), previously coated with 0.1 mg/mL poly-D-lysine (Sigma-Aldrich) in Dulbecco’s phosphate-buffered saline (DPBS) for 1 h at room temperature. Cells were incubated overnight at humidified atmosphere (37°C, 5% CO2). […] The medium was removed, and cells were starved in 50 μL of DMEM/F12 (1:1) without FBS at humidified atmosphere for 1 h. One millimolar peptide stocks in dimethyl sulfoxide (DMSO, Sigma-Aldrich) were diluted in DMEM/F12 (1:1) to desired concentrations. […] The plate was transferred to a plate reader (Infinite M200, Tecan Trading AG, Männedorf, Switzerland), briefly shaken and incubated 5 min at room temperature. […]

T1 sequence (P32245 whole entry, species assumed): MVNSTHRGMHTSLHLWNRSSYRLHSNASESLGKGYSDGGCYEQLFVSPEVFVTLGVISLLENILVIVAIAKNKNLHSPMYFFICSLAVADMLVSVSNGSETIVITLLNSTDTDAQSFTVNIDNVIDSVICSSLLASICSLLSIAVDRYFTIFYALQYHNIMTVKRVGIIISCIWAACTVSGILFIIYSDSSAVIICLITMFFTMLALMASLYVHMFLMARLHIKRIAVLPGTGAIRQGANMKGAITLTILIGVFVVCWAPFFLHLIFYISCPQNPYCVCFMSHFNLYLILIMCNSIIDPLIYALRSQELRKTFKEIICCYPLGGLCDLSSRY

SMILES: CC(=O)N[C@@H](CCCNC(=N)N)C(=O)N[C@H]1CSSC[C@@H](C(N)=O)NC(=O)[C@H](Cc2c[nH]c3ccccc23)NC(=O)[C@H](CCCNC(=N)N)NC(=O)[C@@H](Cc2ccccc2)NC(=O)[C@H](Cc2c[nH]cn2)NC(=O)[C@@H](C)NC1=O [peptide 1.1, Ac-R^bCaHfRW^bC-NH2]
- Emax: 100 ± 4%
